Reference: paper PMC6213216, “AbeTx1 Is a Novel Sea Anemone Toxin with a Dual Mechanism of Action on Shaker-Type K^+ Channels Activation” (Marine Drugs, 2018)
Positions of bridges follow the written chain, without caps; N, C: chain ends. Residues, ends and D or L forms follow the SMILES beside them.

Experiments:
Type in all cases: cell-based
rKV1.6 = target: T1, rKV1.6 (Rattus norvegicus, UniProt P17659); assay: Two-electrode voltage-clamp on Xenopus laevis oocytes expressing rKV1.6; settings: for IC50: concentration-response curve, percentage blocked current fitted with Hill equation, TEVC oocytes, 0 mV from −90 mV, read-out: KV1.6 IC50
T1 construct: expressed in transfected cells; host or cells: Xenopus laevis oocytes injected with cRNA
T1 sequence (P17659 whole entry): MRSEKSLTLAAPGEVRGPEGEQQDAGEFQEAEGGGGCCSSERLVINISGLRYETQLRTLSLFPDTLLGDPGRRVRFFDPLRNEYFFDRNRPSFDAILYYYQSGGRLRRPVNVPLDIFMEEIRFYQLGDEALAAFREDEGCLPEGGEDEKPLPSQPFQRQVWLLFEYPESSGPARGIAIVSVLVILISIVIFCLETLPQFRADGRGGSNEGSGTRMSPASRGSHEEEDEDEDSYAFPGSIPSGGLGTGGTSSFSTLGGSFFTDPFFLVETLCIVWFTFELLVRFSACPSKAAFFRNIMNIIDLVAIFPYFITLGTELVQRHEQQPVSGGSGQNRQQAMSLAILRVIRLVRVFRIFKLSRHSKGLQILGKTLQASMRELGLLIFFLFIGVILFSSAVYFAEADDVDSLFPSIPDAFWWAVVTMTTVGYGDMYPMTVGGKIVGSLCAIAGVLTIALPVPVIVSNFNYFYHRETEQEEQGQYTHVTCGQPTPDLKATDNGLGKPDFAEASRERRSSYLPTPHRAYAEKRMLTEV
Method: (§1) The pharmacological effect of AbeTx1 was analyzed by heterologous expression of 12 voltage-gated potassium channels isoforms (rKV1.1, Genbank NM173095; rKV1.2, Genbank NM012970; hKV1.3, Genbank L23499; rKV1.4,Genbank NM012971; rKV1.5, Genbank NM012972; rKV1.6, Genbank NM575671; Shaker IR from Drosophila melanogaster, Genbank CG12348; rKV2.1, Genbank NM013186; hKV3.1, Genbank NM004976; rKV4.2, Genbank NM031730; rKV4.3, Genbank NM031739 and hERG, Genbank NM000238), and three voltage-gated sodium channel subtypes (rNaV1.2, Genbank NM012647; rNaV1.4, Genbank M26643 and BgNaV1.1, from Blattella germanica) (r, rat; h, human) in oocytes from Xenopus laevis. The linearized plasmids were transcribed using a T7 or SP6 mMESSAGE-mMACHINE transcription kit (Life Technologies, Austin, TX, USA). Oocytes were injected with 20–50 nL of cRNA at a concentration of 1 ng·nL^−1 using a microinjector (Drummond Scientific, Broomall, PA, USA). The oocytes were stored for 1–3 days at 16 °C until sufficient expression of voltage-gated ion channels was achieved. Oocytes were maintained in an ND96 solution (in mM: 96 NaCl, 2 KCl, 1.8 CaCl2, 2 MgCl2 and 5 HEPES; pH 7.4), supplemented with 50 µg·mL^−1 gentamicin sulfate.
(§2) Two-electrode voltage-clamp recordings were performed at room temperature (18–22 °C) using a Geneclamp 500 amplifier (Molecular Devices, Sunnyvale, CA, USA) controlled by a pClamp data acquisition system (Axon Instruments, Union City, CA, USA). ND96 was used as bath solution. Whole-cell currents from oocytes were recorded 1–3 days after injection. Voltage and current electrodes were filled with KCl (3 M). The resistance of both electrodes was kept between 0.8–1.0 MΩ. The elicited currents were filtered at 0.5 or 2 kHz using a four-pole low-pass Bessel filter. Leak subtraction was performed using a -P/4 protocol. KV1.1-KV1.6 and Shaker IR currents were evoked by 500 ms depolarization to 0 mV, followed by a 500 ms pulse to −50 mV, from a holding potential of −90 mV. KV2.1, KV3.1, KV4.2, and KV4.3 currents were elicited by 500 ms pulses to + 20 mV from a holding potential of −90 mV. Current traces of hERG channels were elicited by applying a +40 mV pulse for 2.5 s, followed by a step to −120 mV for 2.5 s. Sodium current traces were evoked by 100 ms depolarization steps from a holding potential of −90 mV to 0 mV. Concentration-response curves were constructed by adding different AbeTx1 or analogs concentrations directly to the bath solution. The percentage of the KV blockade was plotted against the logarithm of the applied concentrations and fitted with the Hill Equation (1):y = 100/[1 + (IC50/[toxin]) × h](1) where y is the amplitude of the toxin-induced effect, IC50 is the toxin concentration at half-maximal efficacy, [toxin] is the toxin concentration, and h is the Hill coefficient. To investigate the effects on the voltage dependence of activation, current traces were evoked by 10 mV depolarization steps from a holding potential of −90 mV. Data were normalized to the maximal K^+ current amplitude, plotted against prepulse potential, and fitted using the Boltzmann Equation (2):IK/Imax = [1 + (exp(Vg − V)/k] − 1(2) where Imax represents maximal potassium current (IK), Vg is the voltage corresponding to half-maximal current, and k is the slope factor. Each experimental data represents mean ± standard error of at least three oocytes (n ≥ 3) from different frogs. Effect of the toxin on current-voltage experiments was statistically examined by comparing the control condition and the presence of toxin using the Student’s paired t-test. P-values < 0.05 are considered to be statistically significant. Data were analyzed using Clampfit 10.4 (Molecular Devices, Sunnyvale, CA, USA) and Origin v8.1 software (Origin Lab, Northampton, MA, USA), under the institutional license of the University of São Paulo.

rNaV1.2 = target: T2, rNaV1.2 (Rattus norvegicus, UniProt P04775); assay: Two-electrode voltage-clamp on Xenopus laevis oocytes expressing rNaV1.2; settings: 3 µM AbeTx1; TEVC, X. laevis oocytes, 100 ms depolarization from −90 mV to 0 mV
T2 construct: expressed in transfected cells; host or cells: Xenopus laevis oocytes injected with cRNA
Method: as §1, with “Oocytes were injected with 20–50 nL of cRNA at a concentration of 1 ng·nL^−1 using a microinjector (Drummond Scientific, Broomall, PA, USA). The oocytes were stored for 1–3 days at 16 °C until sufficient expression of voltage-gated ion channels was achieved. Oocytes were maintained in an ND96 solution (in mM: 96 NaCl, 2 KCl, 1.8 CaCl2, 2 MgCl2 and 5 HEPES; pH 7.4), supplemented with 50 µg·mL^−1 gentamicin sulfate.” left out
(§3) Two-electrode voltage-clamp recordings were performed at room temperature (18–22 °C) using a Geneclamp 500 amplifier (Molecular Devices, Sunnyvale, CA, USA) controlled by a pClamp data acquisition system (Axon Instruments, Union City, CA, USA). […] Whole-cell currents from oocytes were recorded 1–3 days after injection. […] Data were analyzed using Clampfit 10.4 (Molecular Devices, Sunnyvale, CA, USA) and Origin v8.1 software (Origin Lab, Northampton, MA, USA), under the institutional license of the University of São Paulo.

hERG = target: T3, hERG (Homo sapiens, UniProt Q12809); assay: Two-electrode voltage-clamp on Xenopus laevis oocytes expressing hERG (KV11.1); settings: 3 µM AbeTx1; TEVC, X. laevis oocytes, +40 mV pulse 2.5 s then −120 mV 2.5 s
T3 construct: expressed in transfected cells; host or cells: Xenopus laevis oocytes injected with cRNA
T3 sequence (Q12809 whole entry): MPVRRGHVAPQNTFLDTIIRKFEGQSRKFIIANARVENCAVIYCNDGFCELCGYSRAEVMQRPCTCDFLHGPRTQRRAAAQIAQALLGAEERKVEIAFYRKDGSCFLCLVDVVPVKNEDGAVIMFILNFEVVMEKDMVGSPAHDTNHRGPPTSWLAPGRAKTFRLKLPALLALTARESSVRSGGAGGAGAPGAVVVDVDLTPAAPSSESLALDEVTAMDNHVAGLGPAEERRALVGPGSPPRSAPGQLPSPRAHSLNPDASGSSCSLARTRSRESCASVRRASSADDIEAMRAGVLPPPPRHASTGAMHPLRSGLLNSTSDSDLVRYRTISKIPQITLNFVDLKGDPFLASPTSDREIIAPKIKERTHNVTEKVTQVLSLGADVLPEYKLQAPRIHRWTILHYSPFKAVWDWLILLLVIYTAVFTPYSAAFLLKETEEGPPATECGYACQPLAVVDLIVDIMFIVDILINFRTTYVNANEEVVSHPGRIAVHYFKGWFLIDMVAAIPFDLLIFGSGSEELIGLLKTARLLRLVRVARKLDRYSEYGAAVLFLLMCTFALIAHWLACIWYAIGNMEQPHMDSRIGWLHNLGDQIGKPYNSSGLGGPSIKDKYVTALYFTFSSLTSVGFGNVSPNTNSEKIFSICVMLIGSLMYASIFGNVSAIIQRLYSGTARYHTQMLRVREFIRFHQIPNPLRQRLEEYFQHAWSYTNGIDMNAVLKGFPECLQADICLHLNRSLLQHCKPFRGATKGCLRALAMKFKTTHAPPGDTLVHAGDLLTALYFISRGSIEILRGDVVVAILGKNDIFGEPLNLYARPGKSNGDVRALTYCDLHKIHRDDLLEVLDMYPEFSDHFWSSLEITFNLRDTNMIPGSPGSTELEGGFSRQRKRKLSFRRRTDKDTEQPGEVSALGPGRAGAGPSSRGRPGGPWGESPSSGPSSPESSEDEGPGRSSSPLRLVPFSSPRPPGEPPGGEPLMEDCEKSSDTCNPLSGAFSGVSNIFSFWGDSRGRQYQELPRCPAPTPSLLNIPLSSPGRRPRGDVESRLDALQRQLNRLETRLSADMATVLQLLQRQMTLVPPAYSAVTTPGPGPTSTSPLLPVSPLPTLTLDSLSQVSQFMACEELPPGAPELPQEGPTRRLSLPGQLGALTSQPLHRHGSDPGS
Method: as §1, with “Oocytes were injected with 20–50 nL of cRNA at a concentration of 1 ng·nL^−1 using a microinjector (Drummond Scientific, Broomall, PA, USA). The oocytes were stored for 1–3 days at 16 °C until sufficient expression of voltage-gated ion channels was achieved. Oocytes were maintained in an ND96 solution (in mM: 96 NaCl, 2 KCl, 1.8 CaCl2, 2 MgCl2 and 5 HEPES; pH 7.4), supplemented with 50 µg·mL^−1 gentamicin sulfate.” left out
as §3

hKV1.3 = target: T4, hKV1.3 (Homo sapiens, UniProt P22001); assay: Two-electrode voltage-clamp on Xenopus laevis oocytes expressing hKV1.3; settings: 3 µM AbeTx1; TEVC, X. laevis oocytes, 500 ms depolarization to 0 mV from holding −90 mV; mean ± SE, n ≥ 3; SEM; read-out: inhibition of KV1.3 current
T4 construct: expressed in transfected cells; host or cells: Xenopus laevis oocytes injected with cRNA
T4 sequence (P22001 whole entry): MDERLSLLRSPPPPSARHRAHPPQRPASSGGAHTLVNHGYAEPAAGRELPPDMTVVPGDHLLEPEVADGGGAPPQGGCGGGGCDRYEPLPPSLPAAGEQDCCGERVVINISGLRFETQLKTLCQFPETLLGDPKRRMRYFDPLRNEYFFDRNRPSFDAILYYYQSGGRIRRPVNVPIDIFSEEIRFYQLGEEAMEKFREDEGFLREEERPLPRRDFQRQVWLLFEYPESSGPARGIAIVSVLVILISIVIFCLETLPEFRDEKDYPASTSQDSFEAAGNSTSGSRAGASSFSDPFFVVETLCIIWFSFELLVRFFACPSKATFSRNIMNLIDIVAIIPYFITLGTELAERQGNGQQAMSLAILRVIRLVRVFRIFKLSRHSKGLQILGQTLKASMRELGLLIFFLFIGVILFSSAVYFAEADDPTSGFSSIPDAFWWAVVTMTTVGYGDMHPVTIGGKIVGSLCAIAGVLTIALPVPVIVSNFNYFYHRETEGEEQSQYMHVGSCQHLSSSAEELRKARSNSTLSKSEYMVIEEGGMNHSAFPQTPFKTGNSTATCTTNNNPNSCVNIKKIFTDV
Method: as §1, with “Oocytes were injected with 20–50 nL of cRNA at a concentration of 1 ng·nL^−1 using a microinjector (Drummond Scientific, Broomall, PA, USA). The oocytes were stored for 1–3 days at 16 °C until sufficient expression of voltage-gated ion channels was achieved. Oocytes were maintained in an ND96 solution (in mM: 96 NaCl, 2 KCl, 1.8 CaCl2, 2 MgCl2 and 5 HEPES; pH 7.4), supplemented with 50 µg·mL^−1 gentamicin sulfate.” left out
as §3

rKV1.2 = target: T5, rKV1.2 (Rattus norvegicus, UniProt P63142); assay: Two-electrode voltage-clamp on Xenopus laevis oocytes expressing rKV1.2; settings: 3 µM AbeTx1; TEVC, X. laevis oocytes, 500 ms depolarization to 0 mV from holding −90 mV; mean ± SE, n ≥ 3; SEM; read-out: inhibition of KV1.2 current
T5 construct: expressed in transfected cells; host or cells: Xenopus laevis oocytes injected with cRNA
T5 sequence (P63142 whole entry): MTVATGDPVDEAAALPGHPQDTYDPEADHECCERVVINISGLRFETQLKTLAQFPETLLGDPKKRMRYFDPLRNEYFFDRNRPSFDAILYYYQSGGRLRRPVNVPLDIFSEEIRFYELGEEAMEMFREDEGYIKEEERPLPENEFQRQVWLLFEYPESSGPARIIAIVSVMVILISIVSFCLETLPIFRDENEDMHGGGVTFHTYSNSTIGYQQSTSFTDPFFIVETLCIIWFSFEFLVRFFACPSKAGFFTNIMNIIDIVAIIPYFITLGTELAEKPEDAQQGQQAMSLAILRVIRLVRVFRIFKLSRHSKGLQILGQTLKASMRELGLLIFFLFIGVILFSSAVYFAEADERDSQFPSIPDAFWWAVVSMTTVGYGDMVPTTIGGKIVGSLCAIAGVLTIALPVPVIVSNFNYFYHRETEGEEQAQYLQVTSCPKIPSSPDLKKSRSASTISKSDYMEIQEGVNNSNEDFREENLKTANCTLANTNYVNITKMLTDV
Method: as §1, with “Oocytes were injected with 20–50 nL of cRNA at a concentration of 1 ng·nL^−1 using a microinjector (Drummond Scientific, Broomall, PA, USA). The oocytes were stored for 1–3 days at 16 °C until sufficient expression of voltage-gated ion channels was achieved. Oocytes were maintained in an ND96 solution (in mM: 96 NaCl, 2 KCl, 1.8 CaCl2, 2 MgCl2 and 5 HEPES; pH 7.4), supplemented with 50 µg·mL^−1 gentamicin sulfate.” left out
as §3

Shaker IR = target: T6, Shaker IR (Drosophila melanogaster, UniProt P08510, DEL6-46); assay: Two-electrode voltage-clamp on Xenopus laevis oocytes expressing Shaker IR; settings: 3 µM AbeTx1; TEVC, X. laevis oocytes, 500 ms depolarization to 0 mV from holding −90 mV; mean ± SE, n ≥ 3; SEM; read-out: inhibition of Shaker IR current
T6 construct: expressed in transfected cells; host or cells: Xenopus laevis oocytes injected with cRNA
T6 sequence (P08510 with tags, fused parts or gaps DEL6-46): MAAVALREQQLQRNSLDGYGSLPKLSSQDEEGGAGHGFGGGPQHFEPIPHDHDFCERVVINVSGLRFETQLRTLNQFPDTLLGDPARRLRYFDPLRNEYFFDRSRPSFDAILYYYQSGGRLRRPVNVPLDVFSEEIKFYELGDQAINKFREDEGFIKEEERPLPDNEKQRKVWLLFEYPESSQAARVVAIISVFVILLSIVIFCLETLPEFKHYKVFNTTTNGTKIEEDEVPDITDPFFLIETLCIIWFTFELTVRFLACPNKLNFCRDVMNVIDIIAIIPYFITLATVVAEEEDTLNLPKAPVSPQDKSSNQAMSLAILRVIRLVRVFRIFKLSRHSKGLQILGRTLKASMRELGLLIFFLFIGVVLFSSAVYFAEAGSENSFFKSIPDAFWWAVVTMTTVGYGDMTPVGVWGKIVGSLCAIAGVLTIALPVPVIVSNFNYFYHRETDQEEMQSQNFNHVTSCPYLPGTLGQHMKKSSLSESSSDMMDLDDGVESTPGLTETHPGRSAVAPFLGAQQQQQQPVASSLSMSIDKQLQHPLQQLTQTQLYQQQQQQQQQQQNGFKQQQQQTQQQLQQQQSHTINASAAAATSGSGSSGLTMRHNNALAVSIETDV
Method: as §1, with “Oocytes were injected with 20–50 nL of cRNA at a concentration of 1 ng·nL^−1 using a microinjector (Drummond Scientific, Broomall, PA, USA). The oocytes were stored for 1–3 days at 16 °C until sufficient expression of voltage-gated ion channels was achieved. Oocytes were maintained in an ND96 solution (in mM: 96 NaCl, 2 KCl, 1.8 CaCl2, 2 MgCl2 and 5 HEPES; pH 7.4), supplemented with 50 µg·mL^−1 gentamicin sulfate.” left out
as §3

rNaV1.4 = target: T7, rNaV1.4 (Rattus norvegicus, UniProt P15390); assay: Two-electrode voltage-clamp on Xenopus laevis oocytes expressing rNaV1.4; settings: 3 µM AbeTx1; TEVC, X. laevis oocytes, 100 ms depolarization from −90 mV to 0 mV
T7 construct: expressed in transfected cells; host or cells: Xenopus laevis oocytes injected with cRNA
Method: as §1, with “Oocytes were injected with 20–50 nL of cRNA at a concentration of 1 ng·nL^−1 using a microinjector (Drummond Scientific, Broomall, PA, USA). The oocytes were stored for 1–3 days at 16 °C until sufficient expression of voltage-gated ion channels was achieved. Oocytes were maintained in an ND96 solution (in mM: 96 NaCl, 2 KCl, 1.8 CaCl2, 2 MgCl2 and 5 HEPES; pH 7.4), supplemented with 50 µg·mL^−1 gentamicin sulfate.” left out
as §3

rKV1.1 = target: T8, rKV1.1 (Rattus norvegicus, UniProt P10499); assay: Two-electrode voltage-clamp on Xenopus laevis oocytes expressing rKV1.1; settings: for IC50: concentration-response curve, percentage blocked current fitted with Hill equation, TEVC oocytes, 0 mV from −90 mV, read-out: KV1.1 IC50
T8 construct: expressed in transfected cells; host or cells: Xenopus laevis oocytes injected with cRNA
T8 sequence (P10499 whole entry): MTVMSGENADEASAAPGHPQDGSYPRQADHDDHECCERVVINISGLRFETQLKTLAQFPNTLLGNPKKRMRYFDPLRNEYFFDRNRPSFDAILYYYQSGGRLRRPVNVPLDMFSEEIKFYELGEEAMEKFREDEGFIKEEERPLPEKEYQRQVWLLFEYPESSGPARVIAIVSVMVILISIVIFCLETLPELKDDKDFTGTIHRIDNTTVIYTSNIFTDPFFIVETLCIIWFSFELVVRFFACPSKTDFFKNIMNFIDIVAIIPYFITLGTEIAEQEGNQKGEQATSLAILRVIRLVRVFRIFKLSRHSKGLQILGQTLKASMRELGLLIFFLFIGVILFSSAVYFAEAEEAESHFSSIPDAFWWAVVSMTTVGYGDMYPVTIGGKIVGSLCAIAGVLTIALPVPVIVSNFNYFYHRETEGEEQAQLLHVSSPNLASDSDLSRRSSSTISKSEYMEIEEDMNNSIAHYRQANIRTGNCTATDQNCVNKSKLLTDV
Method: as §1, §2

Row | SMILES | inhibition at 3 µM (rKV1.6; 3 µM AbeTx1, TEVC, X. laevis oocytes, 500 ms depolarization to 0 mV from holding −90 mV, mean ± SE, n ≥ 3, SEM, read-out: inhibition of KV1.6 current) | reduction of KV1.6 current, toxin added on top of TEA (rKV1.6; AbeTx1 120 nM applied to bath already containing 920 μM TEA) | IC50 (rKV1.6; mean ± SE, n ≥ 3, SEM) | activity on NaV1.2 (rNaV1.2) | effect on KV11.1 (hERG) current (hERG) | inhibition at 3 µM (hKV1.3) | inhibition at 3 µM (rKV1.2) | inhibition at 3 µM (Shaker IR) | activity on NaV1.4 (rNaV1.4) | inhibition at 3 µM (rKV1.1; 3 µM AbeTx1, TEVC, X. laevis oocytes, 500 ms depolarization to 0 mV from holding −90 mV, mean ± SE, n ≥ 3, SEM, read-out: inhibition of KV1.1 current) | reduction of KV1.1 current, toxin added on top of TEA (rKV1.1; AbeTx1 600 nM applied to bath already containing 200 μM TEA, n = 6) | reduction of the KV1.1 K+ current at +70 mV (rKV1.1; AbeTx1 600 nM, test potential +70 mV from holding −90 mV, n = 6) | reduction of the KV1.1 K+ current at −20 mV (rKV1.1; AbeTx1 600 nM, test potential −20 mV from holding −90 mV, n = 6) | IC50 (rKV1.1; mean ± SE, n ≥ 3, SEM)
1 | C[C@@H](O)[C@@H]1NC(=O)[C@H](CCCCN)NC(=O)[C@@H](NC(=O)[C@@H](N)CCCNC(=N)N)CSSC[C@@H](C(=O)NCC(=O)O)NC(=O)[C@H](CC(N)=O)NC(=O)[C@@H]2CCCN2C(=O)[C@H](CCCCN)NC(=O)[C@@H]2CCCN2C(=O)[C@H](CCCNC(=N)N)NC(=O)[C@@H]2CSSC[C@H](NC1=O)C(=O)N[C@@H](CO)C(=O)N[C@@H](CCCCN)C(=O)NCC(=O)N[C@@H](CCCNC(=N)N)C(=O)N2 [AbeTx1] (H-RCKTCSKGRCRPKPNCG-OH; disulfide 2-16, 5-10) | 95 ± 2.44% | 55.33 ± 2.47% | 116 ± 31.4 nM | no activity | not affected | 19.7 ± 2.18% | 95.3 ± 1.45% | 15.5 ± 1.8% | no activity | 83.7 ± 1.45% | 71.20 ± 2.18% | 11.07 ± 1.12% | 53.47 ± 5.07% | 672 ± 150 nM
2 | C[C@H](N)C(=O)N[C@H]1CSSC[C@@H](C(=O)NCC(=O)O)NC(=O)[C@H](CC(N)=O)NC(=O)[C@@H]2CCCN2C(=O)[C@H](CCCCN)NC(=O)[C@@H]2CCCN2C(=O)[C@H](CCCNC(=N)N)NC(=O)[C@@H]2CSSC[C@H](NC(=O)[C@H]([C@@H](C)O)NC(=O)[C@H](CCCCN)NC1=O)C(=O)N[C@@H](CO)C(=O)N[C@@H](CCCCN)C(=O)NCC(=O)N[C@@H](CCCNC(=N)N)C(=O)N2 [Arg1Ala] (H-ACKTCSKGRCRPKPNCG-OH; disulfide 2-16, 5-10) |  |  | 3530 nM |  |  |  |  |  |  |  |  |  |  | 1970 nM
